# From ChEMBL document CHEMBL1201862, “PubChem BioAssay data set” (2004)
# Calls of active or inactive are those of the source.
# Assays:
# [1] = viability loss in HepG2 hepatoma cells – cell-based, ATP luminescence, cherry-pick, activator set 2, cytotoxicity control, dose response (AID 1053143); type: functional
# [2] = biological target: Major prion protein (Homo sapiens, UniProt P04156); type: functional, cell-based
# [3] = cells
# [4] = biological target: Glyceraldehyde-3-phosphate dehydrogenase (Homo sapiens, UniProt P04406)
# [5] = M. tuberculosis H37Rv growth inhibitors, H37Rv strain (AID 1626); type: functional
# [6] = biological target: T1, Calpain-2 catalytic subunit (Sus scrofa, UniProt P43367); assay: m-calpain protease blockers, concentration series – biochemical, fluorogenic peptide substrate, dose response (AID 1420); type: functional
# T1 sequence (P43367 whole entry): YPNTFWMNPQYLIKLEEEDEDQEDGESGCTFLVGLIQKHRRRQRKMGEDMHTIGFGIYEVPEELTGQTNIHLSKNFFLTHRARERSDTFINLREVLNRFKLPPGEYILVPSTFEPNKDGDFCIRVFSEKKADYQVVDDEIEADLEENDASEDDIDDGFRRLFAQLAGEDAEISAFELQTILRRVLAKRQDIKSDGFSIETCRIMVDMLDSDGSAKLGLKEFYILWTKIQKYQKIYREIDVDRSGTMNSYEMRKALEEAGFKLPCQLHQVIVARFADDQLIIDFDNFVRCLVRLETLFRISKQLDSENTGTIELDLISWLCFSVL
# [7] = biological target: T2, Rac GTPase-activating protein 1 (Homo sapiens, UniProt Q9H0H5); assay: blockers of MgcRacGAP-driven Rac1 GTP hydrolysis – biochemical, ADP Hunter fluorescence, primary and confirmatory, confirmation (AID 624330); type: functional
# T2 sequence (Q9H0H5 whole entry): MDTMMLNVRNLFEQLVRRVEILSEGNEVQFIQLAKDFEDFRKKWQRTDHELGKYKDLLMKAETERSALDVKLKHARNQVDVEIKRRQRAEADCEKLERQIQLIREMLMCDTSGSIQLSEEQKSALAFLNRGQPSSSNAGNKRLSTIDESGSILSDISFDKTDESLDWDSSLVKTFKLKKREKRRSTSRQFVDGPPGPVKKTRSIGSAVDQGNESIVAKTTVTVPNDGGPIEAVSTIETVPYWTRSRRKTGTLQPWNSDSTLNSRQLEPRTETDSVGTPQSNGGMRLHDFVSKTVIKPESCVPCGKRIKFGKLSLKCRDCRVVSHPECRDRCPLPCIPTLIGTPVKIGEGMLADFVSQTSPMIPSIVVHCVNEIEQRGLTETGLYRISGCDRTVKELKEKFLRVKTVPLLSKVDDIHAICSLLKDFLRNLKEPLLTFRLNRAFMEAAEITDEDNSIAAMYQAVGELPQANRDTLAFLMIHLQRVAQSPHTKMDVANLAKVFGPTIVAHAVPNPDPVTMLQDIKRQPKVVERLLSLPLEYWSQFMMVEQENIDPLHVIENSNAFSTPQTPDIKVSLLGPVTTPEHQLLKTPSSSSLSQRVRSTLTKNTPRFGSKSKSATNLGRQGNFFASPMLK
# [8] = Luminescence-based counterscreen assay for KLF5 inhibitors: dose response cell-based high throughput screening assay to identify cytotoxic compounds using the IEC-6 intestinal epithelial cell line. [Related pubchem assays: 1700 (Primary screen.), 1834 (Confirmation screen.), 1858 (Summary AID.), 1905 (Counterscreen.)]; type: functional
# [9] = loss of viability in HepG2 cells – cell-based, CellTiter-Glo, cherry-picked, cytotoxicity control for Shn3 inhibitor project, dose response (AID 624134); type: functional
# [10] = non-specific 3'UTR reporter inhibition in Clone20-Shn3RL – cell-based, Renilla luciferase, cherry-picked, counter-screen for Shn3 inhibitor project, dose response (AID 624133); type: functional
# [11] = biological target: Protein Wnt-3a (Mus musculus, UniProt P27467); assay: antagonism of Wnt3a pathway luciferase reporter – Wnt-LIGHT cells, luminescence, selectivity assay for Gli-SUFU antagonist project, dose response (AID 651570); type: functional; conditions: read-out: IC50_Mean;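 note: Wnt-LIGHT reporter cells stimulated with conditioned medium from Wnt3a-producing cells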
# [12] = biological target: T3, COUP transcription factor 2 (Homo sapiens, UniProt P24468); assay: Luminescence-based cell-based high throughput dose response assay to identify inhibitors of COUP-TFII (NR2F2).; type: functional;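 note: HEK293 cells transiently cotransfected with COUP-TFII expression vector and reporter; luciferase reporter luminescence driven by COUP-TFII from the pX2-168 reporter plasmid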
# T3 sequence (P24468 whole entry): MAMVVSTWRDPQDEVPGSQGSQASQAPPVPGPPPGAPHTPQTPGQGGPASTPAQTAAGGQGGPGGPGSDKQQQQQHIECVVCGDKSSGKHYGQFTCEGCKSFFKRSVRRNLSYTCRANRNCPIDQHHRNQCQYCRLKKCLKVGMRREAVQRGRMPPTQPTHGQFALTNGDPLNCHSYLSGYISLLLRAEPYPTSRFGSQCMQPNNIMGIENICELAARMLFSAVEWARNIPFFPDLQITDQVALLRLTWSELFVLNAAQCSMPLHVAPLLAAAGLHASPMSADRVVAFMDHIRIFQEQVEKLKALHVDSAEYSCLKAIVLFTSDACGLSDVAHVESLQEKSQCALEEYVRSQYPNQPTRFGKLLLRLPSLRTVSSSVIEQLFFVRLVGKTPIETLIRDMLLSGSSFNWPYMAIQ
# [13] = decrease of insulin promoter-GFP reporter – imaging, high-content screening, mouse beta cells (AID 1628); type: functional; conditions: MIN6
# [14] = MIN6 cell viability loss – mouse insulinoma, cytotoxicity control, dose response (AID 2122); type: functional;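 note: confirmatory high-throughput counterscreen run to flag cytotoxic compounds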
# [15] = viability of PTEN-deleted HCT116 cells – cell-based, HCT116 PTEN knockout, dose response (AID 1047); type: functional;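 note: HCT116 colon tumor cells with PTEN knocked out; cells exposed to compound for 60 hours before readout; potency for loss of cell viability measured by luminescence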
# [16] = viability of HCT116 lacking mutant beta-catenin – cell-based, human colon tumor, dose response (AID 1045); type: functional;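 note: HCT116 colon tumor cells with beta catenin knocked out; cells exposed to compound for 60 hours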
# [17] = reduced cellular PGC1a acetyl-lysine signal – cell-based, cherry-picked samples, dose response (AID 720514); type: functional;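 note: potency may reflect raised or lowered acetylation signal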
# [18] = Luminescence Cell-Based Dose Retest to Confirm Inhibitors of Cancer Stem Cells. [Related pubchem assays (depositor defined):AID2717, AID2721]; type: functional; conditions: Homo sapiens
# [19] = biological target: T4, Protein Tat (Human immunodeficiency virus type 1 group M subtype B (isolate HXB2)(HIV-1), UniProt P04608); type: functional;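 note: tat binding to TAR RNA read out by fluorescence polarization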
# T4 sequence (P04608 whole entry): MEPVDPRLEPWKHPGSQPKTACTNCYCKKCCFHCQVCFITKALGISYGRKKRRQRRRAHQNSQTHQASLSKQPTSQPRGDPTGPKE
# [20] = HIV-1 Vif–A3G interaction blockers – biochemical, TR-FRET, GST-Vif 1-94, biotin-A3G peptide, dose response retest, primary screen (AID 1117319); type: functional;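 note: TR-FRET signal of purified GST-Vif binding a biotinylated A3G peptide; inhibitors lower the FRET signal by blocking Vif and A3G binding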
# [21] = reduction of Shn3 3'UTR-driven luciferase in osteoblasts – cell-based, Clone20 osteoblasts, firefly luciferase, cherry-picked, dose response (AID 624132); type: functional;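 note: firefly luciferase luminescence from reporter carrying the Shn3 3'UTR in osteoblasts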
# [22] = HGIII-sPLA2 enzyme inhibition potency – biochemical, QFRET, IC50, dose response (AID 743457);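 note: green fluorescence rise as the enzyme cleaves BODIPY PC-A2 in liposomes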
# [23] = A549 cell cytotoxicity, dose response, cytotoxicity control, plate reader, cherry-pick, antagonist series (AID 743412); type: functional, cell-based
# [24] = blockers of bursicon-stimulated LGR2 cAMP reporter – cell-based, HEK293, CRE-luciferase reporter, cherry pick, set 2, dose response (AID 743343); type: functional;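 note: transfected cells were stimulated with diluted bursicon conditioned medium after compound addition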
# [25] = blockade of melanocortin 4 receptor signaling – cell-based, plate reader, cherry pick, counter-screen for LGR2 antagonist project, dose response (AID 743444); type: functional;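 note: transfected HEK 293 cells stimulated with alpha-MSH peptide; potency of inhibitors of the alpha-MSH evoked signal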
smiles,measurement,setting,value
Cc1cc(NC(=O)c2ccccc2)ncc1NC(=O)c1ccco1,AC50,[1],26 µM (active)
NC(=O)c1ccc(-c2ccc(Br)cc2)o1,IC50,[2],7.42 µM (active)
same,IC50,[3],> 138 µM (inactive)
COC(=O)CSc1nc(Cc2ccccc2)nc2ccccc12,IC50,[2],3.29 µM (active)
same,IC50,[3],> 138 µM (inactive)
O=C1C(Cl)=C(N2CCN(CCOCCO)CC2)C(=O)N1c1cccc(C(F)(F)F)c1,IC50,[4],> 50 µM (inconclusive)
COCC(=O)Nc1ccc(Br)c(C)c1,IC50,[5],> 100 µM (active)
COc1ccc(NC(C)c2cc(Cl)ccc2O)cc1 (stereo unspecified),IC50,[5],> 100 µM (active)
same,IC50,[6],13.9 µM (not active)
same,IC50,[7],69.1 µM (active)
CC(C)CC(NC(=O)CCCNC(=O)CCC(=O)OC1O[C@H]2OC3(C)CC[C@H]4[C@H](C)CCC(C1C)C24OO3)C(=O)O (stereo partly specified),IC50,[8],31.8 µM (not active)
same,AC50,[9],> 70 µM (inactive)
same,AC50,[10],5.65 µM (active)
same,IC50,[11],0.304 µM (active)
same,IC50,[12],> 85.4 µM (inactive)
COc1ccc(C(NC(=O)c2c(F)c(F)c(F)c(F)c2F)c2ccccc2)cc1 (stereo unspecified),IC50,[13],1.79 µM (active)
same,IC50,[14],1.7 µM (active)
same,EC50,[15],27.4 µM (active)
same,EC50,[16],16.8 µM (active)
same,AC50,[17],4.77 µM (active)
COCCNc1nnc(SC(C)C(=O)Nc2ccc(-c3nc4ccc(C)cc4s3)cc2)s1 (stereo unspecified),EC50,[15],30 µM (active)
same,EC50,[16],39.1 µM (active)
same,AC50,[18],10.5 µM (active)
same,IC50,[19],> 100 µM (active)
same,IC50,[20],> 50 µM (active)
O=C1/C(=C/c2ccccn2)SC(=S)N1Nc1ncc(C(F)(F)F)cc1Cl,AC50,[21],49.9 µM (active)
same,AC50,[10],33.1 µM (active)
same,IC50,[22],47.8 µM (inactive)
N#C[C@@H]1[C@H](c2ccc(C#CC3CCCCC3)cc2)[C@@H](CO)N1S(=O)(=O)c1ccccc1,AC50,[23],27.9 µM (active)
same,AC50,[24],12.8 µM (active)
same,AC50,[25],8.18 µM (active)
